Experimental data as given in patent publication US20040039053A1, “Use of(-) (3-halomethylphenoxy) (4-halophenyl) acetic acid derivatives for treatment of insulin resistance, type 2 diabetes, hyperlipidemia and hyperuricemia” (priority 2000, published 2004).
Like-named read-outs stand apart in the source and are kept apart here.

How the values were obtained:
CYP2E1 = CYP2E1 (Homo sapiens, UniProt P05181); test: Cytochrome P450 isoform inhibition in human hepatic microsomes, chlorzoxazone (Example 18); conditions: 0.33 to 33.3 μM
Sequence of CYP2E1 (P05181 whole entry, canonical isoform): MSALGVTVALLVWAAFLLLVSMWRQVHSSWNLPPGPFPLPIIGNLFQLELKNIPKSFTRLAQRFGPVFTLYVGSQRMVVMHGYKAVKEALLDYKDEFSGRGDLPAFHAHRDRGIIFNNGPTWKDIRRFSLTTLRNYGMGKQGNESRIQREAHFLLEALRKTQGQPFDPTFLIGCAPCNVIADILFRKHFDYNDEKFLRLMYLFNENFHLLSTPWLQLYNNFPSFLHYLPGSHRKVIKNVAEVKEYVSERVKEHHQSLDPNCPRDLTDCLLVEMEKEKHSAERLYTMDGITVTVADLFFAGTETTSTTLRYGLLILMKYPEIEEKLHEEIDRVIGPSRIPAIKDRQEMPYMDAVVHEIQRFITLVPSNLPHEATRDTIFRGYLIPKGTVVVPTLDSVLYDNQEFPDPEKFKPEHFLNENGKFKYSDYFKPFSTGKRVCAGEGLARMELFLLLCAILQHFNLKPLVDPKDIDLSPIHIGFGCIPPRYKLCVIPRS

CYP2D6 = CYP2D6 (Homo sapiens, UniProt P10635); conditions: both, 15 min
Sequence of CYP2D6 (P10635 whole entry): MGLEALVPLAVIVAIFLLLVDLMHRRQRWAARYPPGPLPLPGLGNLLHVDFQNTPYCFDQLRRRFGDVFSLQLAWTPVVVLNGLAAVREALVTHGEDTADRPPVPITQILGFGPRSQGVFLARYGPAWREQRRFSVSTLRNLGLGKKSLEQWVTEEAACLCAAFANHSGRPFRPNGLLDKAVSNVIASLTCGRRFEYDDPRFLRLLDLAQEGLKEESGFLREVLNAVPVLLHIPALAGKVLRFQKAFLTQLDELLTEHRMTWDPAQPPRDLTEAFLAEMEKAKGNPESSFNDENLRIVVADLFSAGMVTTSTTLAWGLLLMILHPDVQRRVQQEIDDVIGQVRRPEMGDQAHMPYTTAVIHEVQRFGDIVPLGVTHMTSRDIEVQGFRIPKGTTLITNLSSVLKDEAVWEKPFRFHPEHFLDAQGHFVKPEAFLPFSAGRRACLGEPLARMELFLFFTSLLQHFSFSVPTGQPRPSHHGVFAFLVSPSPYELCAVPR

CYP3A4 = CYP3A4 (Homo sapiens, UniProt P08684); conditions: both, 10 min
Sequence of CYP3A4 (P08684 whole entry): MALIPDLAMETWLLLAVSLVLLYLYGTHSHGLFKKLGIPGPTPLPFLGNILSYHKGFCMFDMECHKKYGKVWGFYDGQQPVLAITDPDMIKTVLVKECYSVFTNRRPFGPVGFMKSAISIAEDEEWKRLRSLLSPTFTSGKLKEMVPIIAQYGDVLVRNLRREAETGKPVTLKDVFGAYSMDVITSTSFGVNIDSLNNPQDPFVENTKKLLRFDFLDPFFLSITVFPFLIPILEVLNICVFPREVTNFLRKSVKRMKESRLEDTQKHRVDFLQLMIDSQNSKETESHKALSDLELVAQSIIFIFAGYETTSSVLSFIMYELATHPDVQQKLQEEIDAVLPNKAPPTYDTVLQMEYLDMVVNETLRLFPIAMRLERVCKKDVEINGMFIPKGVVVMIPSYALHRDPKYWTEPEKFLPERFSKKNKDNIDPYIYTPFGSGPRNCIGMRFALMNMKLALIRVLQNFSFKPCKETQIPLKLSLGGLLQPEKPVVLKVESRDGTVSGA

CYP2A6 = target: T1, CYP2A6 (Homo sapiens, UniProt P11509); test: in vitro; conditions: both, microsomes
T1 sequence (P11509 1-494): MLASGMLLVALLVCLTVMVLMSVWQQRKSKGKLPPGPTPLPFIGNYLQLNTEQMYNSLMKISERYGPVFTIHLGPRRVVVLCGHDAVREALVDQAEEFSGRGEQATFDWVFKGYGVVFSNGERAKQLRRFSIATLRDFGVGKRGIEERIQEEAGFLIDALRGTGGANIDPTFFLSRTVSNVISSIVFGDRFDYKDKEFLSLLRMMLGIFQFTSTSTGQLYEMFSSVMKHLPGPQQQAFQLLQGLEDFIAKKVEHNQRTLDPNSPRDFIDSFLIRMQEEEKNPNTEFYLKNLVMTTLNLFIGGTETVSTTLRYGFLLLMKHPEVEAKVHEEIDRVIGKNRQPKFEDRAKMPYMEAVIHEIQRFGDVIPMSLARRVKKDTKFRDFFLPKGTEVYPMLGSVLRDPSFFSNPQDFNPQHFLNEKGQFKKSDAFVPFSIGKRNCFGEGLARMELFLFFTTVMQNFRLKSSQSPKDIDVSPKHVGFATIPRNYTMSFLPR

`O=C(O)C(Oc1cccc(C(F)(F)F)c1)c1ccc(Cl)cc1` (single isomer, unassigned; (-)) [(−) halofenic acid, (−) 4-chlorophenyl-(3-trifluoromethylphenoxy)-acetic acid] was tested, and the “inhibition of CYP2E1, in words” value (CYP2E1) was “not observed”, the “Dextromethorphan DEX Production” value (CYP2D6; 0.33 μM) was 107 ± 4 pmol/mg protein/min and the “Dextromethorphan DEX Production” value (CYP2D6; 1 μM) was 110 ± 2 pmol/mg protein/min. The “Dextromethorphan DEX Production” value (CYP2D6; 3.3 µM) was 104 ± 3 pmol/mg protein/min, the “Dextromethorphan DEX Production” value (CYP2D6; 10 µM) was 107 ± 1 pmol/mg protein/min and the “Dextromethorphan DEX Production” value (CYP2D6; 33.3 µM) was 106 ± 4 pmol/mg protein/min. For the same compound, the “Testosterone 6β-OHT Production” value (CYP3A4; 0.33 µM) was 1816 ± 12 pmol/mg protein/min, the “Testosterone 6β-OHT Production” value (CYP3A4; 1 µM) was 1851 ± 14 pmol/mg protein/min and the “Testosterone 6β-OHT Production” value (CYP3A4; 3.3 µM) was 1810 ± 3 pmol/mg protein/min. The “Testosterone 6β-OHT Production” value (CYP3A4; 10 µM) was 1819 ± 4 pmol/mg protein/min, the “Testosterone 6β-OHT Production” value (CYP3A4; 33.3 µM) was 1816 ± 6 pmol/mg protein/min and the inhibition at 20 min, 0.33 μM (CYP2A6) was -4%. It also gave an inhibition at 20 min, 1 μM (CYP2A6) of -2%, an inhibition at 20 min, 3.3 μM (CYP2A6) of 0% and an inhibition at 20 min, 10 μM (CYP2A6) of -3%. The inhibition at 20 min, 33.3 μM (CYP2A6) was -1%.
